Assay: Photo-bleaching test according to standard IEC 60068-2-9, Atlas Suntest CPS/XLS+ instrument, reflectance measurement
Assay type: physicochemical
Conditions: sample thickness 4 micrometres, 1 centimetre diameter, 0.1M in decane; exposure 0, 4, 24, 48, 120 and 240 hours
From the text: Exemplary dye compounds will now be described below, including a schematic illustration of each dye. Whilst exemplary anthraquinone dyes are given below, it is to be appreciated that corresponding napthoquinone dyes are envisaged also within the scope of the present invention, namely including napthoquinones having the same molecular structure of the right hand (as illustrated herein) benzene ring as the molecular structure of the right hand (as illustrated herein) benzene ring of the anthrquinone examples described below. The stereochemistry of each dye is not limited to that shown; it is to be appreciated that molecular structures of the dyes having different stereochemistry are within the scope of the dyes of the invention. […] For each of the exemplary dyes, data is given as evidence of their reduced photo-bleaching properties. […] The periods of time given for testing are scalable to equate to a number of weeks of exposing the tested dyes to solar radiation. For example, the period of exposure of 240 hours given below approximately equates to continuously exposing the dyes to solar radiation in London, UK, for 14 weeks, taking an average yearly solar radiation quantity as 1,000 kWh/m^2/year. In reality, taking into account that a display application is not used or is used inside for a major part of the time, this equates to a few years of practical lifetime.
(§1) This dye is cyan in colour. Upon testing, a sample of the dye with a thickness of 4 micrometres, a circular area of 1 centimetre diameter and a concentration of 0.1M in decane, was measured for reflectance of radiation with wavelengths from 380 to 750 nano-metres, at 5 nano-metre increments. This test was run separately for different time periods, namely for 0, 4, 24, 48, 120 and 240 hours. The reflectance of the dye for the range of wavelengths tested was approximately the same for each different testing time period.
as §1, with “purple” for “cyan”, “48, and” for “48,”, “120” for “120 and 240”
as §1, with “magenta” for “cyan”
as §1, with “blue” for “cyan”, “48, and” for “48,”, “120” for “120 and 240”
as §1, with “blue/cyan” for “cyan”, “48, and” for “48,”, “120” for “120 and 240”

photo-bleaching (reflectance of radiation, 380 to 750 nano-metres, compared over testing time periods), does not exhibit photo-bleaching:
CCCCC(CC)CNc1ccc(NCC(CC)CCCC)c2c1C(=O)c1ccccc1C2=O (stereo not drawn) [Example 1]
CCCCC(CC)Cc1cc(NC2CCCCC2)c2c(c1NC1CCCCC1)C(=O)c1ccccc1C2=O (stereo not drawn) [Example 3]
CCCCCCCc1cc(NC2CCCCC2)c2c(c1NC1CCCCC1)C(=O)c1ccccc1C2=O [Example 4]

Same assay, conditions: sample thickness 4 micrometres, 1 centimetre diameter, 0.1M in decane; exposure 0, 4, 24, 48, and 120 hours

photo-bleaching (reflectance of radiation, 380 to 750 nano-metres, compared over testing time periods), does not exhibit photo-bleaching:
CCCCC(CC)CNc1cc(CC(CC)CCCC)c(O)c2c1C(=O)c1ccccc1C2=O (stereo not drawn) [Example 2]
CCCCC(CC)CNc1cc(CC(CC)CCCC)c(N)c2c1C(=O)c1ccccc1C2=O (stereo not drawn) [Example 5]
CCCCC(CC)CNc1cc2c(c3c1C(=O)c1ccccc1C3=O)NC1CC(C)CCC1C2(C)C (stereo not drawn) [Example 6]
